From patent publication US20150175599A1, “FAAH Inhibitors” (Ironwood Pharmaceuticals, Inc., priority 2010, published 2015)

Target: T1, hERG channel (Homo sapiens, UniProt Q12809)
T1 construct: expressed in transfected cells; host or cells: CHO (hERG-CHO), under Geneticin selection
Experiment: hERG channel inhibition, automated patch clamp (IonWorks HT, hERG-CHO)
Assay type: cell-based
Conditions: CHO cells expressing hERG, 600 s incubation; for inhibition at 600 s, 1 µM: 1 μM compound, read-out: hERG Channel Inhibition % (at 1 μM), vehicle-subtracted values; for inhibition at 600 s, 10 µM: 10 μM compound, read-out: hERG Channel Inhibition % (at 10 μM), vehicle-subtracted values
In short: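 hERG-CHO cells held at 30 °C for 48 h before IonWorks HT patch clamp: from −80 mV to +40 for 2 s, then −50 mV for 2 s tail, repeated three times, before and after 600 s compound exposure. Third-pulse post/pre tail amplitude ratio gave percent inhibition; cells with seal <50 MOhm or tail <250 pA excluded.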

T1 sequence (Q12809 whole entry): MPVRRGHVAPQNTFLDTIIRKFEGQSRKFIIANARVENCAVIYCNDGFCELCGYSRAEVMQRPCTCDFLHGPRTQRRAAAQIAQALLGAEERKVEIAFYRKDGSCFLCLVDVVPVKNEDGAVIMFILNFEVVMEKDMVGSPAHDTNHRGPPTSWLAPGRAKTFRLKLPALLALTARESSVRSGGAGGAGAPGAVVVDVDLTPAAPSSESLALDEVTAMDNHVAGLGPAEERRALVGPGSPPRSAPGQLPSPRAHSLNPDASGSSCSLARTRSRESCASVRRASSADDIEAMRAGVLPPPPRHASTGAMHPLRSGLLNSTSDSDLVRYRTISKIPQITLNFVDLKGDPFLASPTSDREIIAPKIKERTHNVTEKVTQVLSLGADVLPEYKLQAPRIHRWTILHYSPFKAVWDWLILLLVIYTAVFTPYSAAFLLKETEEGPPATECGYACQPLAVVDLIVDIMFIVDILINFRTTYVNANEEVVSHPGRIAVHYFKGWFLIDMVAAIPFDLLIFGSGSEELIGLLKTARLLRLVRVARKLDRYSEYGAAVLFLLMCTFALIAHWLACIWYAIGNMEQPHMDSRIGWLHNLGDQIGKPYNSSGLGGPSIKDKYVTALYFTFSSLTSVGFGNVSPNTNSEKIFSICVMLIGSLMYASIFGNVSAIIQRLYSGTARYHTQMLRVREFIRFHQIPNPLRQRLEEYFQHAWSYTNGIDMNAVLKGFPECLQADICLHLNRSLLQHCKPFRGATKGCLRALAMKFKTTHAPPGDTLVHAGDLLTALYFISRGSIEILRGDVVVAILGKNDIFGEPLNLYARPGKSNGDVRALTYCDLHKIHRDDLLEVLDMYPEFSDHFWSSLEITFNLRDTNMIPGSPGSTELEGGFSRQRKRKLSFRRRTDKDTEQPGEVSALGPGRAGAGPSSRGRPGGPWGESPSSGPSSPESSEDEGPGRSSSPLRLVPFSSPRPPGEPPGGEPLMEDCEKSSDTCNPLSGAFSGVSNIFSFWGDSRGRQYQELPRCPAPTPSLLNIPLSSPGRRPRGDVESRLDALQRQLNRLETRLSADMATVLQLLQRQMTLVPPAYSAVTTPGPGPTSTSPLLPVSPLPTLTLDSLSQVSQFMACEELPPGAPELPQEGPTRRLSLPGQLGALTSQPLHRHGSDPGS

SMILES | inhibition at 600 s, 1 µM | inhibition at 600 s, 10 µM
COc1ccc2c(c1)c(C(=O)C(=O)Nc1ccnc(OC)c1)c(C)n2Cc1ccc(Cl)cn1 [Compound 79, 2-(1-((5-chloropyridin-2-yl)methyl)-5-methoxy-2-methyl-1H-indol-3-yl)-N-(2-methoxypyridin-4-yl)-2-oxoacetamide] | < 25% | < 25%
COc1ccc2c(c1)c(C(=O)C(=O)Nc1ccnc(OC)c1)c(C)n2Cc1ncc(F)cc1F [Compound 81, 2-(1-((3,5-difluoropyridin-2-yl)methyl)-5-methoxy-2-methyl-1H-indol-3-yl)-N-(2-methoxypyridin-4-yl)-2-oxoacetamide] | < 25% | < 25%
COc1cc(NC(=O)C(=O)c2c(C)n(Cc3ccc(Cl)cc3)c3cc(F)c(C)cc23)ccn1 [Compound 89, 2-(1-(4-chlorobenzyl)-6-fluoro-2,5-dimethyl-1H-indol-3-yl)-N-(2-methoxypyridin-4-yl)-2-oxoacetamide] | < 25% | < 25%
COc1ccc2c(c1)c(C(=O)C(=O)Nc1ccnc(OC)c1)c(C)n2Cc1cccnc1 [Compound 78, 2-(5-methoxy-2-methyl-1-(pyridin-3-ylmethyl)-1H-indol-3-yl)-N-(2-methoxypyridin-4-yl)-2-oxoacetamide] | < 25% | 25 to 50%
COc1ccc2c(c1)c(C(=O)C(=O)Nc1ccnc(OC)c1)c(C)n2Cc1ncc(Cl)cc1F [Compound 87, 2-(1-((5-chloro-3-fluoropyridin-2-yl)methyl)-5-methoxy-2-methyl-1H-indol-3-yl)-N-(2-methoxypyridin-4-yl)-2-oxoacetamide] | < 25% | < 25%
COc1cc(NC(=O)C(=O)c2c(C)n(Cc3ccc(Cl)cn3)c3cc(Cl)c(C)cc23)ccn1 [Compound 94, 2-(6-chloro-1-((5-chloropyridin-2-yl)methyl)-2,5-dimethyl-1H-indol-3-yl)-N-(2-methoxypyridin-4-yl)-2-oxoacetamide] | < 25% | < 25%
COc1cc(NC(=O)C(=O)c2c(C)n(Cc3ccc(Cl)cc3)c3cc(Cl)c(C)cc23)ccn1 [Compound 93, 2-(6-chloro-1-(4-chlorobenzyl)-2,5-dimethyl-1H-indol-3-yl)-N-(2-methoxypyridin-4-yl)-2-oxoacetamide] | < 25% | < 25%
COc1ccc2c(c1)c(C(=O)C(=O)Nc1ccnc(OC)c1)c(C)n2Cc1ccc(C)cn1 [Compound 84, 2-(5-methoxy-2-methyl-1-((5-methylpyridin-2-yl)methyl)-1H-indol-3-yl)-N-(2-methoxypyridin-4-yl)-2-oxoacetamide] | < 25% | < 25%
COc1cc(NC(=O)C(=O)c2c(C)n(Cc3ccc(Cl)cc3)c3cc(OC)c(Cl)cc23)ccn1 [Compound 80, 2-(5-chloro-1-(4-chlorobenzyl)-6-methoxy-2-methyl-1H-indol-3-yl)-N-(2-methoxypyridin-4-yl)-2-oxoacetamide] | < 25% | < 25%
COc1cc(NC(=O)C(=O)c2c(C)n(Cc3ccc(Cl)cn3)c3cc(F)c(C)cc23)ccn1 [Compound 90, 2-(1-((5-chloropyridin-2-yl)methyl)-6-fluoro-2,5-dimethyl-1H-indol-3-yl)-N-(2-methoxypyridin-4-yl)-2-oxoacetamide] | < 25% | < 25%
COc1ccc2c(c1)c(C(=O)C(=O)Nc1ccnc(OC)c1)c(C)n2Cc1ncc(Cl)cc1Cl [Compound 82, 2-(1-((3,5-dichloropyridin-2-yl)methyl)-5-methoxy-2-methyl-1H-indol-3-yl)-N-(2-methoxypyridin-4-yl)-2-oxoacetamide] | < 25% | < 25%
COc1cc(NC(=O)C(=O)c2c(C)n(Cc3ccc(Cl)cc3)c3cccnc23)ccn1 [Compound 3, 2-(1-(4-chlorobenzyl)-2-methyl-1H-pyrrolo[3,2-b]pyridin-3-yl)-N-(2-methoxypyridin-4-yl)-2-oxoacetamide] | < 25% | 25 to 50%
COc1cc(NC(=O)C(=O)c2c(C)n(Cc3ccc(F)cn3)c3ccc(C)cc23)ccn1 [Compound 85, 2-(1-((5-fluoropyridin-2-yl)methyl)-2,5-dimethyl-1H-indol-3-yl)-N-(2-methoxypyridin-4-yl)-2-oxoacetamide] | < 25% | 25 to 50%
COc1cc(NC(=O)C(=O)c2c(C)n(Cc3ccc(Cl)cc3Cl)c3cc(F)c(OC)cc23)ccn1 [Compound 92, 2-(1-(2,4-dichlorobenzyl)-6-fluoro-5-methoxy-2-methyl-1H-indol-3-yl)-N-(2-methoxypyridin-4-yl)-2-oxoacetamide] | < 25% | < 25%
